Measured values taken from ChEMBL document CHEMBL1201862, “PubChem BioAssay data set” (2004).
Blank lines part the entries; values can stand above or below the molecule they belong to. The source made the active and inactive calls.

Legend:
Mu-type opioid receptor = Mu-type opioid receptor (Homo sapiens, UniProt P35372); assay: (§1) Counterscreen for agonists of heterodimerization of the mu 1 (OPRM1) and delta 1 (OPRD1) opioid receptors: Luminescence-based cell-based high throughput dose response assay to identify agonists of OPRM1 homodimerization.; assay type: functional
[1] = biological target: 5-hydroxytryptamine receptor 5A (Homo sapiens, UniProt P47898); assay: Counterscreen for agonists of OPRM1-OPRD1 heterodimerization: luminescence-based cell-based high throughput dose response assay to identify agonists of 5-hydroxytryptamine (serotonin) 5A receptor (HTR5A). [Related pubchem assays (depositor defined):AID504326, AID504355, AID504692, AID504904, AID504905]; assay type: functional
[2] = biological target: T1, Short transient receptor potential channel 4 (Mus musculus, UniProt Q9QUQ5); assay: mouse TRPC4 channel activators, dose response, cell-based, HEK293 TRPC4/mu-opioid, Fluo-4 calcium (AID 434937); assay type: functional
T1 sequence (Q9QUQ5 whole entry): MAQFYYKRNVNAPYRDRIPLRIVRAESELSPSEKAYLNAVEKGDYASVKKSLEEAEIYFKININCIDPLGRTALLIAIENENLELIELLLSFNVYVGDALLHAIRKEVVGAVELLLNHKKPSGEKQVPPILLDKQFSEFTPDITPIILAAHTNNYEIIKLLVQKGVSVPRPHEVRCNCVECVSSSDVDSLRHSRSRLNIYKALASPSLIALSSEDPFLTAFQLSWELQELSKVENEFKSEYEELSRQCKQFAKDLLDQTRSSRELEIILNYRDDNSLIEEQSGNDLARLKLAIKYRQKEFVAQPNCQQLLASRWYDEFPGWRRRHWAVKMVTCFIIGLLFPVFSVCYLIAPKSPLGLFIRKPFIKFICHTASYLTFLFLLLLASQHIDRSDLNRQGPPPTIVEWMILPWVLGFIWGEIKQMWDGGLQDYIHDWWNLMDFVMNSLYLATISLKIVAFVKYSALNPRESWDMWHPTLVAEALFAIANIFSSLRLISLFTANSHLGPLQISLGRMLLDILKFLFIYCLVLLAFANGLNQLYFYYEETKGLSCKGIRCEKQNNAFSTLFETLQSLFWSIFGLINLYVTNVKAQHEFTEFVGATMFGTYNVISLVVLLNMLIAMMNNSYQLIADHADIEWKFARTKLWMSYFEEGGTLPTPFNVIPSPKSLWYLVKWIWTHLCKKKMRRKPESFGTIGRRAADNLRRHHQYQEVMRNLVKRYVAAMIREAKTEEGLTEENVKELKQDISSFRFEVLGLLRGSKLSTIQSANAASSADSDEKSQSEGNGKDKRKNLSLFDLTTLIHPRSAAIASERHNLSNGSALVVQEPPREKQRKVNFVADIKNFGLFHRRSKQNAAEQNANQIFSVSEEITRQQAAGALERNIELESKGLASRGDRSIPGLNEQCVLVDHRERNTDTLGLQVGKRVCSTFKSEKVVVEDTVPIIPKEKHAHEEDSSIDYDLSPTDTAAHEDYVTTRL

[3] = biological target: Delta-type opioid receptor (Homo sapiens, UniProt P41143); assay: as §1, with “of OPRD1” for “of OPRM1”, “homodimerization. [Related pubchem assays (depositor defined):AID504326, AID504355, AID504692, AID504904, AID504905]” for “homodimerization.”; assay type: functional
HEK293 [4] = assay: NOD2 signaling inhibitors in MDP-stimulated cells, cell-based, uHTS, luminescence (AID 2001); assay type: functional; conditions: Homo sapiens
HEK293 [5] = assay: cells; assay type: functional, cell-based; conditions: Homo sapiens
[6] = biological target: Luciferin 4-monooxygenase (Photuris pensylvanica, UniProt Q27757); assay: firefly luciferase enzyme inhibitors, dose response, counter-screen for HSF-1 reporter inhibitor project, biochemical, Cell Titer Glo, luminescence, cherry-picks (AID 588847)
[7] = HEK293 cell cytotoxicity, dose response, cytotoxicity control, plate reader, cherry-picked samples (AID 743446); assay type: functional, cell-based
HEK293 [8] = assay: cells; assay type: functional, cell-based; conditions: Homo sapiens; remark: listed apart in the source
[9] = MC4R antagonists, dose response, counter-screen for LGR2 antagonist project, cell-based, plate reader, cherry pick (AID 743444); assay type: functional;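 also: transfected HEK 293 cells stimulated with alpha-MSH peptide; potency of inhibitors of the alpha-MSH evoked signal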
[10] = biological target: Nucleotide-binding oligomerization domain-containing protein 2 (Homo sapiens, UniProt Q9HC29); assay: NOD2 signaling inhibitors, cell-based, luminescence, uHTS, HEK293 (AID 1566); assay type: functional
[11] = LGR2 antagonists, dose response, cell-based, HEK293, CRE-luciferase reporter, cherry pick, set 2 (AID 743343); assay type: functional;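 also: transfected cells were stimulated with diluted bursicon conditioned medium after compound addition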
HEK293 [12] = assay: cells; assay type: functional, cell-based; conditions: Homo sapiens; remark: listed apart in the source
HEK293 [13] = assay: NOD1 signaling inhibitors, primary screen, cell-based, luminescence, uHTS (AID 1578); assay type: functional; conditions: Homo sapiens
[14] = biological target: T2, Heat shock factor protein 1 (Mus musculus, UniProt P38532); assay: inhibition of MG132-induced HSE-luciferase signal, confirmation, cell-based, NIH3T3, luminescence, dose retest (AID 2382); assay type: functional;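 also: NIH3T3 fibroblasts with HSF1-driven luciferase reporter stressed by proteasome inhibitor MG132; luminescence from HSF1-driven luciferase expression after 8 hours of MG132 stress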
T2 sequence (P38532 whole entry): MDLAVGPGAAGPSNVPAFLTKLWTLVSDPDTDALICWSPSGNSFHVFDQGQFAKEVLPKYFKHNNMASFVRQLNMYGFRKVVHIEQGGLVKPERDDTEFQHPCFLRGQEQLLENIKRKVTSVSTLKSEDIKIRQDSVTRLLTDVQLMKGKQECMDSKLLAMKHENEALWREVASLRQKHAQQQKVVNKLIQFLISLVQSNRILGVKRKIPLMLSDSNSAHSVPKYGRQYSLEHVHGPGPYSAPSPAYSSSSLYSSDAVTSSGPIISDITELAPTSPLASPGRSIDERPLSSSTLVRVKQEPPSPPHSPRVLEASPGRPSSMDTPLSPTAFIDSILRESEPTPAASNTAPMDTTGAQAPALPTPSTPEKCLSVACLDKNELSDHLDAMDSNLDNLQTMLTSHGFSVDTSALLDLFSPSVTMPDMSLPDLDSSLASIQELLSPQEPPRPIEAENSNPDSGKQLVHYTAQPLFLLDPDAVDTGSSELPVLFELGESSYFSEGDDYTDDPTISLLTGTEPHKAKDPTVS

Escherichia coli [15] = assay: microbe, parasite or virus in culture
Escherichia coli [16] = assay: microbe, parasite or virus in culture; remark: listed apart in the source
[17] = SFLLRN-induced P-Selectin Platelet Surface Expression Measured in Cell-Based System Using Flow Cytometry - 2016-03_Inhibitor_Dose_DryPowder_Activity_Set3. [Related pubchem assays (depositor defined):AID1678]; assay type: functional
[18] = Luminescence Cell-Based Dose Response Follow up to Identify Inhibitors of Platelet Dense Granule Release. [Related pubchem assays (depositor defined):AID1663, AID1678, AID1889, AID2519]; assay type: functional

Nucleotide-binding oligomerization domain-containing protein 2, sequence (Q9HC29 whole entry, the tested form may be a part): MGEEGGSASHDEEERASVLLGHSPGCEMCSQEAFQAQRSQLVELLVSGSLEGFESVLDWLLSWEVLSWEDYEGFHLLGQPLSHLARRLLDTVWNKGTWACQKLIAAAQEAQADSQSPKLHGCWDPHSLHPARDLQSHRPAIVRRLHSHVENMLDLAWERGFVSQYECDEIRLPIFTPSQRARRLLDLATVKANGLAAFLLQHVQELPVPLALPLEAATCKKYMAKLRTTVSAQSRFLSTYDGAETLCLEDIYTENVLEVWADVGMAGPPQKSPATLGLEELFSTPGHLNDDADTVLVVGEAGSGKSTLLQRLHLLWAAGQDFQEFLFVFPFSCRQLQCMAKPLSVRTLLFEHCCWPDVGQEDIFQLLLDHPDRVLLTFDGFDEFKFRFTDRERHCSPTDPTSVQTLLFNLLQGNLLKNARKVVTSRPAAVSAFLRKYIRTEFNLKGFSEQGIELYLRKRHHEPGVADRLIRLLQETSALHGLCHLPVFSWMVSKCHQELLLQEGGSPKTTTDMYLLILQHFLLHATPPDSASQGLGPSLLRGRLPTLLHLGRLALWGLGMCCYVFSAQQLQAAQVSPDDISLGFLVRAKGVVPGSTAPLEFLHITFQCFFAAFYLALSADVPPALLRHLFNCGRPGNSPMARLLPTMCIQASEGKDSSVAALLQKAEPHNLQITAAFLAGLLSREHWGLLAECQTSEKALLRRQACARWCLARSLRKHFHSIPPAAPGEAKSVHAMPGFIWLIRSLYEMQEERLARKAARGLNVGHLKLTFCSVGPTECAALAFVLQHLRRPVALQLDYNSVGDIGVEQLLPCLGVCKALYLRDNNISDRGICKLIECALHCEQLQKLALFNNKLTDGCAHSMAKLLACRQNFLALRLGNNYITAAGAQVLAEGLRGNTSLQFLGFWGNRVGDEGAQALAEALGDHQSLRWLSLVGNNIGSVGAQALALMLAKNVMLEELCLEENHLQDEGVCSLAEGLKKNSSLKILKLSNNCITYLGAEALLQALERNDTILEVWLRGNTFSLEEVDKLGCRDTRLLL
5-hydroxytryptamine receptor 5A, sequence (P47898 whole entry): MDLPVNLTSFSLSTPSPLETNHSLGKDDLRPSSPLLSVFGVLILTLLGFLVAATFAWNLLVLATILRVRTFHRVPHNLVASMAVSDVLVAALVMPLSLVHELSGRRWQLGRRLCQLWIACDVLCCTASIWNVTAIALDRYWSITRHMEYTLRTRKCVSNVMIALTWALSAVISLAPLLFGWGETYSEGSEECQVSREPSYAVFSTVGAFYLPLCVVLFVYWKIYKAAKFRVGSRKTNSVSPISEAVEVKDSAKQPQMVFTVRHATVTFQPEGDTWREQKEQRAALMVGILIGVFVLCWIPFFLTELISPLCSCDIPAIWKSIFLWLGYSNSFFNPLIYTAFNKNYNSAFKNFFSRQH
Delta-type opioid receptor, sequence (P41143 whole entry): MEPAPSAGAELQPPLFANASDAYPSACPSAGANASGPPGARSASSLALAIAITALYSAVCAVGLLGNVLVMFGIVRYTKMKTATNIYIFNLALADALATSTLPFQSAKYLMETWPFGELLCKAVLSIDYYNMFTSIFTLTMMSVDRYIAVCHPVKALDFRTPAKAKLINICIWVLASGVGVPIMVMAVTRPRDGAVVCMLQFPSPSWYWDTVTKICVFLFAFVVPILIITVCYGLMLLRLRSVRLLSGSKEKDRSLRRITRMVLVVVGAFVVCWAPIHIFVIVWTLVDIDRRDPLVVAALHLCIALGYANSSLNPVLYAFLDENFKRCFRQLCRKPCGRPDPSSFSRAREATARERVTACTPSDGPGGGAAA
Luciferin 4-monooxygenase, sequence (Q27757 whole entry): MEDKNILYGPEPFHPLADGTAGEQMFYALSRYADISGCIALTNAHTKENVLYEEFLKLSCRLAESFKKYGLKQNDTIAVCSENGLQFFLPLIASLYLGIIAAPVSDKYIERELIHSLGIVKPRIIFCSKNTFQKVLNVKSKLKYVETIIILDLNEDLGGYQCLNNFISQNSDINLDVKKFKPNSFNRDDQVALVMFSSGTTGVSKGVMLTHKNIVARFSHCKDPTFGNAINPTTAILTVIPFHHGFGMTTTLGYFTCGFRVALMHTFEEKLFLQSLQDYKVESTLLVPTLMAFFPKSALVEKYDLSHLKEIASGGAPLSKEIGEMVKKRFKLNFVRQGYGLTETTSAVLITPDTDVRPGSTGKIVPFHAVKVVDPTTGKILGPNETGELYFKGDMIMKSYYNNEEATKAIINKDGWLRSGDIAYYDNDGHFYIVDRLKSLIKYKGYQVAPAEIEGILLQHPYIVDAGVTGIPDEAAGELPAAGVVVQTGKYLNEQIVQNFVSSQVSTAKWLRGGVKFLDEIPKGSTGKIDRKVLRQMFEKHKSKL
Mu-type opioid receptor, sequence (P35372 whole entry): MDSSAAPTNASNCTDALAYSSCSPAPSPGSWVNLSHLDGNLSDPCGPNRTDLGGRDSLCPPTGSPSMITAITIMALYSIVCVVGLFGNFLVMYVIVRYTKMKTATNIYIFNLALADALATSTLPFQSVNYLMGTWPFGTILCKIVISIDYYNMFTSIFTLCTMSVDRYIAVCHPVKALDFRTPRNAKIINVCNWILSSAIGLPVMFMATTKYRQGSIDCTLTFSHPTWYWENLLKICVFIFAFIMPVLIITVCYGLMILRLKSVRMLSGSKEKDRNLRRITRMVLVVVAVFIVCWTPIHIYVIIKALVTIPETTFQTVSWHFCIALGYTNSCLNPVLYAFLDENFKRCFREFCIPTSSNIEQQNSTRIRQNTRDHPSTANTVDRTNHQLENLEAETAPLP

- EC50 (Mu-type opioid receptor): > 92.5 µM (inactive)
- EC50 [1]: > 92.5 µM (inactive)
- EC50 [2]: 1.06 µM (active)
- EC50 [3]: > 92.5 µM (inactive)
SMILES: COc1ccc(C(CNC(=O)CCOc2ccccc2)N(C)C)cc1 (centres undefined)

SMILES: Cc1cccc(-n2ncc3c(N(C)C4CCCCC4)ncnc32)c1
- IC50 (HEK293 [4]): 6.81 µM (active)
- IC50 (HEK293 [5]): 0.783 µM (active)
- AC50 [6]: 6.99 µM (active)
- AC50 [7]: 40.2 µM (active)
- IC50 (HEK293 [8]): > 20 µM (inactive)
- AC50 [9]: 0.0758 µM (active)
- EC50 [10]: < 0.31 µM (inactive)
- AC50 [11]: 0.121 µM (active)
- IC50 (HEK293 [12]): > 20 µM (inactive)
- EC50 (HEK293 [13]): 9.93 µM (active)
- EC50 [14]: < 0.16 µM (active)

SMILES: COc1ccc(C)cc1S(=O)(=O)N(C)CC(=O)N1CCC(C(N)=O)CC1
- AC50 (Escherichia coli [15]): > 380 µM (inactive)
- AC50 (Escherichia coli [16]): 25.7 µM (active)

SMILES: CC(=O)Nc1ccc(NC(=O)c2ccccc2Br)cc1
- AC50 [17]: 6.02 µM (active)
- EC50 [18]: 8.7 µM (active)
